These results are taken from patent EP1881000A1, “Conjugates of 2-fluoro-2-deoxy-glucose and their uses as anti cancer agents” (INSTITUT NATIONAL DE LA SANTE ET DE LA RECHERCHE MEDICALE …, priority 2006, dated 2008).

Data set [1] concerns Breast cancer adenocarcinoma MCF 7. As to the kind of experiment: In vitro cytotoxicity assay (resazurin reduction test). Type of data set: cell-based. The settings on record: Homo sapiens; MCF7; 48-h continuous drug exposure. From the text:
(§1) Normal human fibroblasts were purchased from Promocell (Heidelberg, Germany). This frozen culture was obtained from foreskin waste and the cells used in this work were from the seventh to twelfth passage of the culture. M4Beu, a human melanoma cell line, was established in the laboratory of Dr. J. F. Doré (INSERM, Unit 218, Lyon, France) from metastatic biopsy specimens and maintained in cell culture for almost 20 years in our lab. Breast cancer adenocarcinoma MCF 7, prostatic adenocarcinoma PC 3, colon adenocarcinoma DLD-1, lung non-small cell carcinoma A 549, ovary adenocarcinoma PA1 human cell lines and L 929 murine cell line were purchased from the European Collection of Cell Cultures (ECACC; Salisbury, United Kingdom). Murine Melanoma B16 was purchased from American Type of Culture Collection (ATCC, Manassas, USA) and murine colon carcinoma cell line CT-26 was obtained from Dr I. J. Fidler (University of Texas M.D. Anderson Cancer Center, Houston).
(§2) Stock cell cultures were maintained as monolayers in 75cm^2 culture flasks in Glutamax Eagle's minimum essential medium with Earle's salts (MEM; Gibco BRL, Paisley, UK) supplemented with 10% fetal calf serum (Sigma, St Quentin Fallavier, France), 1 mM sodium pyruvate (Gibco), 1X vitamins solution (Gibco), 1X non essential amino acids solution (Gibco) and 4 µg/ml of gentamicine (Gibco). Cells were grown at 37°C in a humidified atmosphere containing 5% CO2.
(§3) Cells were plated at a density of 5 x 10^3 cells per well in 96-well microplates (Nunclon™, Nunc, Roskilde, Denmark) in 150 µl of culture medium and were allowed to adhere for 16 h before treatment with the compound tested.
(§4) Stock solution of each compound was prepared in dimethylsulfoxide (DMSO) and kept at -20°C. until use. The percentage of DMSO was kept at 0.5% (v/v) whichever the concentration tested. […] Fifty microliters of a 4X solution in MEM was then added and a 48-h continuous drug exposure protocol was used. Then, the cytotoxic effect of compounds on tumour cells was tested by using Resazurin reduction test.
(§5) Resazurin was identified as the Alamar blue dye (O'Brien, J. et al.; European Journal of Biochemistry, 267, 5421-6, (2000)). The resazurin reduction test (RRT) was carried out according to the protocol described here. Briefly, plates were rinsed by 200 µl PBS (37° C, Gibco) using a multichannel dispenser (Labsystems, Helsinki, Finland) and emptied by overturning on absorbent toweling. Then, 150 µl of a 25 µg/ml solution of resazurin in MEM without SVF nor Phenol red was added in each well. The plates were incubated 1 h at 37° C. in an humidified atmosphere with 5% of CO2 for fluorescence development by living cells. Fluorescence was then measured on the automated 96-well plate reader Fluoroskan Ascent FL™ (Labsystems) using an excitation wavelength of 530 nm and an emission one of 590 nm.
(§6) Cytotoxic activity has been tested against the six human tumour cell lines breast adenocarcinoma MCF-7, colon adenocarcinoma DLD-1, ovary adenocarcinoma PA1, prostatic adenocarcinoma PC3, lung carcinoma A549, melanoma M4Beu and a primary culture of human fibroblasts.

In data set [2] the test system is M4Beu, a human melanoma cell line. The description is as above. Type of data set: cell-based. The settings on record: 48-h continuous drug exposure.
Excerpt: as §1, §2, §3, §4, §5, §6

Data set [3] concerns Normal human fibroblasts. The data set is described as above. Type of data set: cell-based. The settings on record: Fibroblast, 48-h continuous drug exposure.
Excerpt: as §1, §2, §3, §4, §5, §6

Data set [4] concerns colon adenocarcinoma DLD-1. Described as above. In kind it is cell-based. Particulars: Homo sapiens, DLD1, 48-h continuous drug exposure.
Excerpt: as §1, §2, §3, §4, §5, §6

In data set [5] the test system is lung non-small cell carcinoma A 549. Described as above. In kind it is cell-based. Particulars: Homo sapiens; A549; 48-h continuous drug exposure.
Excerpt: as §1, §2, §3, §4, §5, §6

Data set [6] has as its system ovary adenocarcinoma PA1. The description is as above. Type of data set: cell-based. Particulars: Homo sapiens, 48-h continuous drug exposure.
Excerpt: as §1, §2, §3, §4, §5, §6

Data set [7] concerns Murine Melanoma B16. Described as above. Type of data set: cell-based. Particulars: Mus musculus, 48-h continuous drug exposure.
Excerpt: as §1, §2, §3, §4, §5

In data set [8] the test system is murine colon carcinoma cell line CT-26. The data set is described as above. In kind it is cell-based. The settings on record: Mus musculus; CT26; 48-h continuous drug exposure.
Excerpt: as §1, §2, §3, §4, §5

The subject of data set [9] is tumour cells. As to the kind of experiment: In vitro cytotoxicity assay, statements over all cell lines of Table 1. In kind it is cell-based. The settings on record: Homo sapiens, PA-1.
Excerpt: as §1, with “Houston). […]” for “Houston).”
Resazurin was identified as the Alamar blue dye (O'Brien, J. et al.; European Journal of Biochemistry, 267, 5421-6, (2000)). […] The plates were incubated 1 h at 37° C. in an humidified atmosphere with 5% of CO2 for fluorescence development by living cells. Fluorescence was then measured on the automated 96-well plate reader Fluoroskan Ascent FL™ (Labsystems) using an excitation wavelength of 530 nm and an emission one of 590 nm. […]

Data set [10] relates to B16 melanoma. As to the kind of experiment: Antitumour activity in B16-melanoma bearing mice, IP chemotherapy protocol. Type of data set: in vivo, C57BL6J male mice. Particulars: for Life span of the animals: B16 melanoma-bearing mice; for antitumour activity according to the NCI criteria decisions: in words. The protocol: Drugs were dissolved in a mixture of dimethylacetamide (Sigma) and oleic macrogolglycerides (Labrafil® M1944Cs, Gattefossé) (10:90%, vol/vol).
It is performed in tumour-bearing mice following an IP chemotherapy protocol.
To establish B16 melanoma model, 3 x 10^5 B16F0 cells (ATCC, Manassas, USA; in vitro doubling time of 16 hours) were suspended in 100 µL of phosphate buffer solution (PBS®, life Technologies) and injected into the subcutaneous tissue of the right flank of C57BL6J male mice, 6-weeks-old (Charles River, France) on day zero.
For both molecules and both animal models, treatment was initiated eight days post tumour grafting, when the tumours had reached a measurable size, corresponding to a calculated tumour weight (CTW) of 40 and 70 mg for B16 and CT-26 models respectively.
Animals were then randomly divided in both treatment and control groups. […] Two dosages have been evaluated, MTD and 0.75 MTD
Mice were weighed and observed every two days over a 30-day -period to evaluate general clinical state. Length and width of tumours were measured every two days over a 30-day-period using a dedicated slide calliper.
The Calculated Tumour Weight (CTW) of each tumour was determined according to the formula: CTW(mg) = L × 1^2 /2 [formula] with L = length in mm and 1= width in mm.
For subcutaneously growing tumours, antitumour activity is often assessed by using the log10 cell kill (LCK) which is calculated from the following formula: LCK = T-C value in days/3.32 × Td [formula] T is the median time (in days) required for the treatment group tumours to reach a predetermined CTW (e.g. 1000 mg). C is the median time (in days) required for the control group tumours to reach the same CTW. Td is the tumour volume doubling time (in days) estimated from the best fit straight line from a log-linear growth plot of the control group tumours in exponential growth.
An increase in life span was defined by the ratio of the median survival of drug-treated mice (Mt) versus controls (Mc): a survival Mt/Mc equal or higher than 125 % was sought
Mean weight loss of the group was used to evaluate treatment side effects. A mean body weight loss of greater 20% was considered to indicate an excessively toxic dosage.

Data set [11] concerns prostatic adenocarcinoma PC 3. The experiment in a line: In vitro cytotoxicity assay (resazurin reduction test). Type of data set: cell-based. The settings on record: Homo sapiens; PC3; 48-h continuous drug exposure.
Excerpt: as §1, §2, §3, §4, §5, §6

The mark [12] stands for this setting: B16 melanoma, dosage not stated.
[13] abbreviates: B16 melanoma, 75% MTD, IP D8, D12, D16.
[14] abbreviates: B16 melanoma, MTD, IP D8, D12, D16.

Turning to `O=C(O)CCCc1ccc(N(CCCl)CCCl)cc1` [chlorambucil, reference compound], the IC50 in data set [1] was greater than 100 µM; in data set [2] it was greater than 100 µM; in [3], 99 ± 2 µM; in data set [4], 47 ± 17 µM; in data set [5], 43 ± 14 µM; in data set [6] it was 2.8 ± 0.4 µM. Besides, the IC50 in [7] is 42.6 ± 9.5 µM; in data set [8] it was 6.3 ± 0.4 µM; in [9] it was greater than 40 µM. Also, the LCK in data set [10] (setting [12]) is listed as less than 0.7; in data set [10] (setting [13]), 0.05; in data set [10] (setting [14]) it was 0.24. Also, the “Life span of the animals” value in data set [10] is given as “not”. In addition, the “Antitumour Efficacy” value in [10] (setting [13]) and in [10] (setting [14]) was “- (LCK < 0.7 inactive drug (-))” throughout. Also, the “Survival Mt/Mc” value is listed as 0.67 in data set [10] (setting [13]) and 1 in data set [10] (setting [14]). Moreover, the “Weight loss (% max)” value in data set [10] (setting [13]) stood at 7.3%; in data set [10] (setting [14]) it was 13.6%. Also, the “tumour growth inhibition (CTW time-course)” value in data set [10] (B16 melanoma, both MTD and 0,75 MTD dosages, vs non-treated and vehicle-treated groups, p< 0.05) was “failed to induce any tumour growth inhibition”. The “antitumour activity according to the NCI criteria decisions” value (“antitumour activity according” for short) was “inactive” in data set [10] (B16 melanoma) and “failed in exhibiting any antitumour activity” in data set [10] (B16 melanoma, listed as Chlorambucil).
Regarding `CC(=O)OC[C@H]1O[C@@H](NC(=O)CNC(=O)CCCc2ccc(N(CCCl)CCCl)cc2)[C@H](F)[C@@H](OC(C)=O)[C@@H]1OC(C)=O` [Compound 21a, N-[2-(3,4,6-tri-O-acetyl-2-deoxy-2-fluoro-β-D-glucopyranosylamino)-2-oxoethyl]-4-{4-[bis(2-chloroethyl)amino]phenyl}butanamide], the IC50 stood at 8 ± 2 µM in data set [1]; 6.8 ± 0.9 µM in [2]; 4.1 ± 0.1 µM in [3]; 4 ± 3 µM in data set [4]; 5 ± 2 µM in data set [5]; 1 ± 0.1 µM in data set [6]. The IC50 turned out to be 10 ± 2 µM in data set [11], 6.4 ± 0.6 µM in [7] and 7 ± 1 µM in data set [8]. The LCK entry in data set [10] (setting [12]) is “around 1.1”; in data set [10] (setting [13]), 1.10; in [10] (setting [14]), 1.02. The “Life span of the animals” value in data set [10] is “increased”. Besides, the “Antitumour Efficacy” value in data set [10] (setting [13]) and in [10] (setting [14]) was “+ (0.7 < LCK < 1.2 active drug (+))” each time. Also, the “Survival Mt/Mc” value in data set [10] (setting [13]) is 1.18; in data set [10] (setting [14]) it was 0.74. Further, the entries for the “Weight loss (% max)” value in data set [10] (setting [13]) and in [10] (setting [14]) were 16% and 15.7%, respectively. Moreover, in data set [10] (B16 melanoma), the “antitumour activity according” value is given as “active”.
Consider `CC(=O)OC[C@H]1O[C@@H](Oc2ccc(NC(=O)CNC(=O)CCCc3ccc(N(CCCl)CCCl)cc3)cc2)[C@H](F)[C@@H](OC(C)=O)[C@@H]1OC(C)=O` [Compound 40a, N-{2-[4-(3,4,6-tri-O-acetyl-2-deoxy-2-fluoro-β-D-glucopyranosyloxy)phenyl]amino-2-oxoethyl}-4-{4-[bis(2-chloroethyl)amino]phenyl}butanamide], for which the IC50 in [2] came to 15 ± 6 µM; in data set [3], 17 ± 6 µM; in data set [4], 6 ± 2 µM; in data set [5], 10 ± 5 µM; in data set [6] it was 1.5 ± 0.5 µM; in [11] it was 7 ± 2 µM. Also, the IC50 in data set [7] amounted to 10 ± 0.5 µM; in [8] it was 4.3 ± 0.2 µM. Moreover, the values for the LCK result in [10] (setting [12]), in data set [10] (setting [13]) and in data set [10] (setting [14]) were “around 1.5”, 1.81 and 1.53, respectively. Moreover, the “Life span of the animals” value in data set [10] was “increased”. Also, the “Antitumour Efficacy” value in data set [10] (setting [13]) and in data set [10] (setting [14]) was “++ (1.7 < LCK < 1.9 highly active drug (++))” each time. Moreover, the “Survival Mt/Mc” value is reported as 1.5 in data set [10] (setting [13]) and 0.8 in data set [10] (setting [14]). Also, the figures for the “Weight loss (% max)” value in data set [10] (setting [13]) and in data set [10] (setting [14]) were 13.6% and 16.9%, respectively. Moreover, the “antitumour activity according” value in data set [10] (B16 melanoma) is “highly active”.
